Experimental data from patent US20260294922A1, “Inhibitors of JUN N-Terminal Kinases (JNK1, JNK2, and/or JNK3) and Mitogen-Activated Protein Kinases (MAPK8, MAPK9, and/or MAPK10) and Methods of Using Same” (Baylor College of Medicine, priority 2023, published 2026).
Converted amounts (≈) assume the structure as drawn. “Also recorded” adds a separate entry of the source.

What was measured:
[1] = Solubility
[2] = molecular target: T1, JNK1 (Homo sapiens, UniProt P45983); test: JNK1 kinase (intrinsic ATPase, Kinase-Glo) assay; format: biochemical
T1 sequence (P45983 whole entry): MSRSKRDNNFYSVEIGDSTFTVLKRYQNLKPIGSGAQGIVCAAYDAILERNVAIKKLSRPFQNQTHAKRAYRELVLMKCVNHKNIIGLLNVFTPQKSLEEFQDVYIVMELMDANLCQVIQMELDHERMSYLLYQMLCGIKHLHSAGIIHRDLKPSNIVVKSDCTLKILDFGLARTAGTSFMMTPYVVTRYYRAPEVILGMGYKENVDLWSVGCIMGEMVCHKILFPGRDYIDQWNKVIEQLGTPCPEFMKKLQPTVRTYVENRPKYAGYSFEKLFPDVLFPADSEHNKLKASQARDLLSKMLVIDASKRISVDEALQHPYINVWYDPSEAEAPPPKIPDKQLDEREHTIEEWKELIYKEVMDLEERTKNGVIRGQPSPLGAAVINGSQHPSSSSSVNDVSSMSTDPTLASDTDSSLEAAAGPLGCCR
Outline: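 Full-length construct not stated; kinases hydrolyse ATP without peptide substrate, reaction run 30 or 60 min at 30° C, remaining ATP read by Kinase-Glo luminescence with no-kinase controls. Apparent Ki from normalized fractional activities fitted to modified Morrison tight-binding equation; orthogonal LanthaScreen binding assay gave IC50.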

[3] = molecular target: JNK2 (Homo sapiens, UniProt P45984); test: Promega NanoBRET intracellular target engagement (tracer K10 displacement), JNK2; format: cell-based
Chain of JNK2 (P45984 whole entry): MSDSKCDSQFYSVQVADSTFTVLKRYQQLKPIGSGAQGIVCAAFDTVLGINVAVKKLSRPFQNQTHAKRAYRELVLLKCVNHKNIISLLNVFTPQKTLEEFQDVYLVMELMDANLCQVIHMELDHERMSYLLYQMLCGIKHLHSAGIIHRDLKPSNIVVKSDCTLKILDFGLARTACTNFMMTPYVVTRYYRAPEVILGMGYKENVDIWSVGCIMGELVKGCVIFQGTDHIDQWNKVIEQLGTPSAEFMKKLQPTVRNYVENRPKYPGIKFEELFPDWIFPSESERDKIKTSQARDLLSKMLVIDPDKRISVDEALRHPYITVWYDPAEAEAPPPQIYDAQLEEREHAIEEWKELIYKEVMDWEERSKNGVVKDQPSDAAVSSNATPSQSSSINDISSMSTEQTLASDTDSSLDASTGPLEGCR

[4] = molecular target: JNK3 (Homo sapiens, UniProt P53779); test: Promega NanoBRET intracellular target engagement (tracer K10 displacement), JNK3; format: cell-based
Chain of JNK3 (P53779 whole entry): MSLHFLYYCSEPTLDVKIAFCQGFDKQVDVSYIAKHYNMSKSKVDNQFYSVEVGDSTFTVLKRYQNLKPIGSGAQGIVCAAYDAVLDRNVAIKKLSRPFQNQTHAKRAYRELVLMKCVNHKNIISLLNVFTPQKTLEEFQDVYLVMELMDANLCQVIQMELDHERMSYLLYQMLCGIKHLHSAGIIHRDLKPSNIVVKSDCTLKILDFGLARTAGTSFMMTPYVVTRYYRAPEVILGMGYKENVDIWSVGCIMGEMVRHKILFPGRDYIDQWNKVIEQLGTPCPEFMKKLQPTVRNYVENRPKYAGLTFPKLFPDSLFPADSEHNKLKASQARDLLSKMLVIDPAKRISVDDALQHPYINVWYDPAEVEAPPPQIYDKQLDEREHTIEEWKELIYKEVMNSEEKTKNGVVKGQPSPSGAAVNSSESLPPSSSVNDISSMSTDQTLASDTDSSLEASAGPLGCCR

[5] = molecular target: T2, hVPS34 (Homo sapiens, UniProt Q8NEB9); test: ThermoFisher SelectScreen, hVPS34; format: binding; conditions: Table 4
T2 construct: purchased ThermoFisher (SelectScreen, outsourced service)
T2 sequence (Q8NEB9 whole entry): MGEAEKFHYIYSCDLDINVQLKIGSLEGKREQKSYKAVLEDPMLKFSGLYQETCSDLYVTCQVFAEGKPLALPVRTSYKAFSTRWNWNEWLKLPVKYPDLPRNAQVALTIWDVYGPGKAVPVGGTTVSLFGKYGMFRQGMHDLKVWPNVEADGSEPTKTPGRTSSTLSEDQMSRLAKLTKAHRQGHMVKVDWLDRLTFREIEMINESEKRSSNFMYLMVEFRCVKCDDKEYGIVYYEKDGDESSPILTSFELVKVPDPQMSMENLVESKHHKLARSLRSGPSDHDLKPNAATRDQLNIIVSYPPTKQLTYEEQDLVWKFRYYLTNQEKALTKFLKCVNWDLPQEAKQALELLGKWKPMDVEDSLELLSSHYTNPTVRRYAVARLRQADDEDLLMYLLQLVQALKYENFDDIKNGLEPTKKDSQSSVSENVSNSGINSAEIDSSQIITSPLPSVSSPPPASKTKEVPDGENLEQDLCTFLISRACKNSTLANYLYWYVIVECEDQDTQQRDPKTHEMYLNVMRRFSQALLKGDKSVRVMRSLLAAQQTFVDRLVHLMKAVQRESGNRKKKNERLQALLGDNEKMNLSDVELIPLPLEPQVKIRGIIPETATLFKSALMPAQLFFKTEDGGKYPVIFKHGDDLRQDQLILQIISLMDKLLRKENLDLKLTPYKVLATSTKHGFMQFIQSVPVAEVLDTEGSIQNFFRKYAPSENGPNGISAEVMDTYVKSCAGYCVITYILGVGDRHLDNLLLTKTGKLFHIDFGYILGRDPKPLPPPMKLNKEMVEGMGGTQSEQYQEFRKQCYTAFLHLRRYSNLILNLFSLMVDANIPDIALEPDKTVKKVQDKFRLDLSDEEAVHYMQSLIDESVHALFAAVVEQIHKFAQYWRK
Method: (§1) To mitigate violation of the linear initial velocity principle, which is a problem in end-point assays when doing dose-responses, the enzyme concentration was carefully optimized, in a total assay volume of 25 μL. The assay was performed using 10 μM ATP, 0.02% Tween-20, kinase buffer from Cell Signaling (#9802) in white 384-well plates. The kinase reaction was done for 30 or 60 min at 30° C., and detection of leftover ATP was measured according to Promega's protocol. […] Fractional activities were obtained from normalized data. Non-linear regression (GraphPad Prism7) and a modified Morrison equation for tight binding was used to determine apparent Ki values for inhibitors, assuming no particular mode of inhibition. An orthogonal binding assay (LanthaScreen) was outsourced to ThermoFisher Scientific's SelectScreen Services to determine IC50 values.
(§2) One of the earliest compounds to be synthesized with favorable enzymatic activity towards JNK1 and JNK3 was CDD-2346. A KINOMEscan was performed for CDD-2346 to establish whether the selectivity of this chemical scaffold was suitable or required optimization. […] To confirm that the activity against each kinase was a true result and not a false positive, CDD-2346 was evaluated in kinase assays using ThermoFisher SelectScreen platform. The results from these assays are provided herein (Table 4). The important innovative steps described are the optimization of selectivity a) for JNK isoforms; b) for kinases considered “in-pathway”; and c) to avoid kinases considered “out-of-pathway”.

[6] = molecular target: T3, CLK2 (Homo sapiens, UniProt P49760); test: ThermoFisher SelectScreen, CLK2; format: binding
T3 construct: purchased ThermoFisher (SelectScreen)
T3 sequence (P49760 whole entry): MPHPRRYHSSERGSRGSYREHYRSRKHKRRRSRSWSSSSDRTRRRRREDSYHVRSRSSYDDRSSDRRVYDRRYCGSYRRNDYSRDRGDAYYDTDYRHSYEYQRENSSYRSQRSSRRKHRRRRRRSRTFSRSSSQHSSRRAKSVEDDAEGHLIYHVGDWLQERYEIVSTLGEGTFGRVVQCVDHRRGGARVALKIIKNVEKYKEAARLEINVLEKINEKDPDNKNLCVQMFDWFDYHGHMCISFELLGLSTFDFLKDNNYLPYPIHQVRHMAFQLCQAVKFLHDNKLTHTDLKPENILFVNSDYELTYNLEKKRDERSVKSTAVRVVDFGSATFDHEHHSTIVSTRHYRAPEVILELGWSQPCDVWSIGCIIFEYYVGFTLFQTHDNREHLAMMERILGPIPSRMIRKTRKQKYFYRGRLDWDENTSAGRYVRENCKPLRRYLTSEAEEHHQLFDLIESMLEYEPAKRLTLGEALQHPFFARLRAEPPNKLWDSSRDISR

[7] = molecular target: T4, MEK4 (Homo sapiens, UniProt P45985); test: ThermoFisher SelectScreen, MEK4; format: binding
T4 construct: purchased ThermoFisher (SelectScreen)
T4 sequence (P45985 1-399): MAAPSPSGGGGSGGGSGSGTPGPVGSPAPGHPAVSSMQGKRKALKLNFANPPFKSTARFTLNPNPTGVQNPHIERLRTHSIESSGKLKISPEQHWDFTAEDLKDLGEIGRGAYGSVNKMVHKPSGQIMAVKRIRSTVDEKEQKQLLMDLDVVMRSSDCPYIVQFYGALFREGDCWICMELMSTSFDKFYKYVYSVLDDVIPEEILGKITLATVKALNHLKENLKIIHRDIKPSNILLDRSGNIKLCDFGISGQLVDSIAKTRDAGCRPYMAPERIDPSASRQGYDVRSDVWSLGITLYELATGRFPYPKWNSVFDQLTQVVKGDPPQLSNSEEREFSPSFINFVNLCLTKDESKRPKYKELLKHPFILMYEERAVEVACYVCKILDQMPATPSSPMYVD

[8] = molecular target: T5, CSNK1E (Homo sapiens, UniProt P49674); test: ThermoFisher SelectScreen, CSNK1E; format: binding
T5 construct: purchased ThermoFisher (SelectScreen)
T5 sequence (P49674 whole entry): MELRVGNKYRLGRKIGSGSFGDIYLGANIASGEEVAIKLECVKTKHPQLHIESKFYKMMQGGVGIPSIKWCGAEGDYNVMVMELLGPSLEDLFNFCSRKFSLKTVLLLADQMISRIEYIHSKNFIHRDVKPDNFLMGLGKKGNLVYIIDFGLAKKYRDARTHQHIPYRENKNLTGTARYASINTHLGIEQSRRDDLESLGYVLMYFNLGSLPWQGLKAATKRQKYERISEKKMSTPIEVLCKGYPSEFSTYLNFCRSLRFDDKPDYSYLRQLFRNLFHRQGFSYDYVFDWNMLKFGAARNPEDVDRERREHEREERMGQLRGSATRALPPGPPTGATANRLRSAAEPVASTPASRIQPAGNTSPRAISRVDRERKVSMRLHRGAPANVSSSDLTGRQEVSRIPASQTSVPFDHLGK

[9] = molecular target: T6, CSNK1A1 (Homo sapiens, UniProt P48729); test: ThermoFisher SelectScreen, CSNK1A1; format: binding; conditions: Table 4
T6 construct: purchased ThermoFisher (SelectScreen)
T6 sequence (P48729 whole entry): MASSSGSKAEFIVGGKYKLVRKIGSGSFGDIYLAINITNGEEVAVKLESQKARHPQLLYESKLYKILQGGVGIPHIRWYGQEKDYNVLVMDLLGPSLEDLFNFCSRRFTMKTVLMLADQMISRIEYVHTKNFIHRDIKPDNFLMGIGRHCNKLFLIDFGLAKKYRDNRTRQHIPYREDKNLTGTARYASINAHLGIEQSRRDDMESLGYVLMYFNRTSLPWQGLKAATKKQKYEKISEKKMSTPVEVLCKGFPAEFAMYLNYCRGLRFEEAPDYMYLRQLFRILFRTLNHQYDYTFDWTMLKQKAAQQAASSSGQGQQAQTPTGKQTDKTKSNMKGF
Method: as §1, §2

[10] = molecular target: T1, JNK1; test: ThermoFisher SelectScreen, JNK1; format: binding
[11] = system: human endometriotic stromal cells (patient 143); test: IL-1β-stimulated pro-inflammatory gene expression in primary endometriotic stromal cells, patient 143; format: cell-based; conditions: patient 143, relative to CDD-939
Description: Similar to patient “50”, lower concentrations of CDD-2728 were required to reduce the proinflammatory response of IL-1β in stromal cells on these measured genes than in 12Z epithelial cells.
To confirm and further support the results described herein, endometriotic stromal cell cultures were established from a second patient. For compliance purposes, this set of cell culture results are identified as Eosis143. These are stromal cells obtained from the lining of an ovarian endometrioma cyst wall.

[12] = molecular target: T7, CLK3 (Homo sapiens, UniProt P49761); test: ThermoFisher SelectScreen, CLK3; format: binding
T7 construct: purchased ThermoFisher (SelectScreen, outsourced service)
T7 sequence (P49761 whole entry): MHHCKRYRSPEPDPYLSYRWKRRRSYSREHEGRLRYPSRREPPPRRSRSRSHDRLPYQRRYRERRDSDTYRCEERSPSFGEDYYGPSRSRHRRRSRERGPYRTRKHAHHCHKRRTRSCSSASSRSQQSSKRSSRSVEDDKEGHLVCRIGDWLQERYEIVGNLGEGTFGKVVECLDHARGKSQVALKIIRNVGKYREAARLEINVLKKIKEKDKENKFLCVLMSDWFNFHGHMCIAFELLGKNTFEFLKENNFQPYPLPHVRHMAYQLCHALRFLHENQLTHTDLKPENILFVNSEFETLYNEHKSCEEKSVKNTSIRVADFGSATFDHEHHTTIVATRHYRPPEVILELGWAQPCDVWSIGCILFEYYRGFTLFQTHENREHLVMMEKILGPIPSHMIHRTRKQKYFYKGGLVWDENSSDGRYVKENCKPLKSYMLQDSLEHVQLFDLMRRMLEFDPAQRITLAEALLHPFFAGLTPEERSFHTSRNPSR

Row | SMILES | solubility [1] [µM] | Kd [2] [µM] | IC50 [3] [µM] | IC50 [4] [µM] | Kd [5] [µM] | Kd [6] [µM] | Kd [7] [µM] | Kd [8] [µM] | Kd [9] [µM] | Kd [10] [µM] | inhibition of IL-6, IL-8, MMP-3 and PTGS2 gene expression [11] | Kd [12] [µM]
1 | CNCc1ccc(NC(=O)c2ccn3ncc(-c4cnc5[nH]ccc5c4)c3c2)cc1 [CDD-2346, N-(4-((methylamino)methyl)phenyl)-3-(1H-pyrrolo[2,3-b]pyridin-5-yl)pyrazolo[1,5-a]pyridine-5-carboxamide] | 167 (≈ 66.1 µg/mL) | 0.00023 ± 8e-05 | 1.7 | 3 | 0.109 | 0.034 | 0.018 | 0.048 | 0.085 | – | – | –
2 | CN(C)Cc1ccc(NC(=O)c2ccn3ncc(-c4cnc5[nH]ccc5c4)c3c2)cc1 [CDD-2482, N-(4-((dimethylamino)methyl)phenyl)-3-(1H-pyrrolo[2,3-b]pyridin-5-yl)pyrazolo[1,5-a]pyridine-5-carboxamide] | 176 (≈ 72.2 µg/mL) | 0.00025 ± 4e-05 | – | – | 0.255 | 0.017 | 0.009 | 0.029 | 0.0705 | – | – | –
3 | O=C(Nc1ccc(F)cc1)c1ccn2ncc(-c3cnc4[nH]ccc4c3)c2c1 [CDD-2486, N-(4-fluorophenyl)-3-(1H-pyrrolo[2,3-b]pyridin-5-yl)pyrazolo[1,5-a]pyridine-5-carboxamide] | 0.3 (≈ 0.111 µg/mL) | 0.0017 ± 0.0002 | 0.442 | 0.468 | 1.14 | 0.13 | 0.0262 | 0.235 | 41.3 | – | – | –
4 | CN(C)C(=O)c1cc(NC(=O)c2cc3c(-c4cnc5[nH]ccc5c4)cccc3s2)ccc1O [CDD-2728, N-(3-(dimethylcarbamoyl)-4-hydroxyphenyl)-4-(1H-pyrrolo[2,3-b]pyridin-5-yl)benzo[b]thiophene-2-carboxamide] | 19.4 (≈ 8.86 µg/mL) | 0.00024 ± 5e-05 | 0.57 | 0.534 | – | 0.24 | 0.018 | 1.07 | – | 0.001 | at lower doses than was required for inhibition of expression of these genes by CDD-939; also recorded: superior to bentamapimod in efficacy of suppression and potency | 1.02
